# How the values were obtained:
# [1] = tested on: mice; assay: Feeding trials with various acute poisons in formulation C particles (Example 11), mice; type: in vivo; conditions: MOUSE; formulation C particle 0.45 × 0.45 mm; bait conc. 22.5 ppm
# Method: (§1) Particles containing various acute poisons were made according to Formulation C, and feeding trials were carried out with rats and with mice.
# [2] = tested on: Rats; assay: Feeding trials with various acute poisons in formulation C particles (Example 11), rats; type: in vivo; conditions: RAT, formulation C particle 1.5 × 1.5 mm
# Method: as §1
# [3] = tested on: female Wistar rats; assay: Feeding test of totally homogeneous aldicarb bait (Example 1), rats; type: in vivo, rat; conditions: for Kill Rat: 100 ppm aldicarb in medium oatmeal, 5 female Wistar rats
# From the text: (§2) Except where otherwise stated, baits according to the invention were produced by thoroughly hand mixing the particles with medium oatmeal, and the baits were fed to caged rats and mice as the sole feed. Water was made freely available to them. The baits remaining in each cage were weighed daily, and fresh baits provided each day.
# (§3) Totally homoneneous baits were produced by slurrying an acetone solution of aldicarb on medium oatmeal to give a concentrate, then diluting the concentrate with medium oatmeal by hand mixing, to give an aldicarb concentration of 100 ppm. The toxicity of the resulting bait was determined by tests on 5 female Wistar rats and 10 male LACA mice.
# [4] = tested on: male LACA mice; assay: Feeding test of totally homogeneous aldicarb bait (Example 1), mice; type: in vivo, mouse; conditions: for Kill Mouse: 100 ppm aldicarb in medium oatmeal, 10 male LACA mice
# From the text: as §2, §3
# [5] = tested on: Wistar females; assay: Feeding test of formulation A 1.25 mg particles in oatmeal (Example 2); type: in vivo, rat; conditions: one 1.25 mg pellet per 20 grams of oatmeal, 5 Wistar females
# Method: as §2
# The toxicity of aldicarb particles made to formulation A was determined by tests on 5 Wistar females exposed to medium oatmeal containing one 1.25 mg pellet per 20 grams of oatmeal.
# [6] = tested on: Heterozygous anti-coagulant resistant rats; assay: Feeding test of formulation A 1.25 mg particles in oatmeal (Example 3); type: in vivo, rat; conditions: one 1.25 mg particle per 20 grams of oatmeal, bait not changed daily, 5 heterozygous anti-coagulant resistant rats
# Method: as §2
# 5 Heterozygous anti-coagulant resistant rats were allowed to feed on bait consisting of medium oatmeal containing one 1.25 mg particle made to formulation A per 20 grams of oatmeal. The bait was weighed daily, but in this example it was not changed daily.
# [7] = tested on: male LACA mice; assay: Feeding test of formulation A 0.5 mg particles in oatmeal (Example 4); type: in vivo, mouse; conditions: 10 male LACA mice
# Method: as §2
# 10 Male LACA mice were fed with bait consisting of medium oatmeal containing one 0.5 mg particle made according to formulation A per 10 grams of oatmeal.
# [8] = tested on: male LACA mice; assay: Feeding test of formulation A 0.2 mg particles in oatmeal (Example 5); type: in vivo, mouse; conditions: 10 male LACA mice
# Method: as §2
# 10 Male LACA mice were permitted to feed on bait consisting of medium oatmeal containing one 0.2 mg particle of formulation A per-2 grams of oatmeal.
# [9] = tested on: male LACA mice; assay: Feeding test of formulation B 0.2 mg particles in oats (Example 6); type: in vivo, mouse; conditions: 50 g medium oats with 10 particles of formulation B, 0.2 mg aldicarb each; 5 male LACA mice starved for 24 hours; Day 1
# Method: as §2
# 5 Male LACA mice were starved for 24 hours and then permitted to feed on 50 g of medium oats containing dispersed therein 10 particles of formulation B each containing 0.2 mg of aldicarb.
# [10] = tested on: Male heterozygous resistant rats; assay: Feeding test of formulation B 1.1 mg particles in oatmeal (Example 7); type: in vivo, rat; conditions: 50 g medium oatmeal with 10 particles of formulation B, 1.1 mg aldicarb each; 3 male heterozygous resistant rats; Day 1
# Method: as §2
# 3 Male heterozygous resistant rats were permitted to feed on 50 g medium oatmeal containing 10 particles of formulation B each containing 1.1 mg of aldicarb.
# [11] = tested on: female 300-350 gram Wistar rats; assay: Feeding test of mouse bait particles on rats (Example 8); type: in vivo, rat; conditions: for Mouse bait particles Rat Kill: 0.1 mg aldicarb particles, one per two grams of oatmeal (50 ppm), five female Wistar rats
# Method: (§4) Particles of a size suitable for consumption whole (without nibbling) by mice, i.e. about 0.5 mm diameter spheres, containing 0.1 mg of aldicarb per particle were produced by a precipitation process.
# (§5) The mouse bait particles were distributed in medium oatmeal at the concentration of one per two grams of oatmeal (50 ppm), and the rat bait particles were distributed in medium oatmeal at the concentration of one per twenty grams of oatmeal (50 ppm).
# (§6) Ten male 12-18 gram LAC mice and five female 300-350 gram Wistar rats were permitted to feed on the mouse bait; and five female 300-350 gram Wistar rats were allowed to feed on the rat bait. The baits were topped up when necessary to keep a supply of food material available, and water was supplied freely.
# [12] = tested on: male 12-18 gram LAC mice; assay: Feeding test of mouse bait particles on mice (Example 8); type: in vivo; conditions: for Mouse bait particles Mouse Kill: 0.1 mg aldicarb particles, one per two grams of oatmeal (50 ppm), ten male LAC mice
# Method: as §4, §5, §6
# [13] = tested on: female 300-350 gram Wistar rats; assay: Feeding test of rat bait particles on rats (Example 8); type: in vivo; conditions: for Rat bait particles Rat Kill: 1.0 mg aldicarb particles, one per twenty grams of oatmeal (50 ppm), five female Wistar rats
# Method: Suitably larger particles appropriate for rats, i.e. about 1 mm x 1 mm cylinders, containing 1.0 mg of aldicarb per particle were produced by extrusion.
# as §5, §6
# [14] = tested on: mice with a body weight approximately 20 g; assay: No-choice feeding test of three 100 ppm aldicarb presentations (Example 9), mice; type: in vivo, mouse; conditions: for Mouse Kill %: no choice, after 5 days
# Method: (§7) Three baits were produced containing the toxicant aldicarb, each at 100 ppm (0.01%) concentration. Aldicarb was presented in the bait either homogeneously dispersed in the manner of a conventional rodenticide, as discrete 0.4 x 0.4 mm particles, (formulation C) or as discrete 1.0 x 1.0 mm particles. The diluent was medium grade oatmeal in all cases. Tests were carried out on mice with a body weight approximately 20 g, rats with a body weight approximately 250 g, and rabbits with a body weight approximately 2,500 g.
# (§8) Baits were offered with no choice of alternative food for five days.
# [15] = tested on: rats with a body weight approximately 250 g; assay: No-choice feeding test of three 100 ppm aldicarb presentations (Example 9), rats; type: in vivo, rat; conditions: after 5 days
# Method: as §7, §8
# [16] = in vivo; type: in vivo, rabbit; conditions: rabbit, in vivo, po; 100 ppm as HOMOGENEOUS; no choice, after 5 days; read-out: Rabbit Kill %
# Method: as §7, §8
# [17] = tested on: rabbits with a body weight approximately 2,500 g; assay: in vivo; type: in vivo, rabbit; conditions: 100 ppm aldicarb; any of the three formulations
# Method: as §7, §8
# [18] = tested on: Rats; assay: Determination of optimum particle size (Example 10), rats; type: in vivo, rat; conditions: formulation C, one particle per 10 g diet base, after 5 days
# From the text: (§9) Rats were offered medium oatmeal diet containing aldicarb particles (formulation C) at the rate of one per 10 g diet base and mice were offered the particles at the rate of one per 4 g diet base.
# [19] = tested on: mice; assay: Determination of optimum particle size (Example 10), mice; type: in vivo, mouse; conditions: formulation C, one particle per 4 g diet base, after 5 days
# From the text: as §9
# [20] = formulation A 0.5 mg aldicarb particles, 4 days
# [21] = 100 ppm as 0.4 × 0.4 mm particles (formulation C)
# [22] = 100 ppm as 1.0 × 1.0 mm particles
smiles,measurement,setting,value
"Cc1cc(N(C)C)nc(Cl)n1 [CRIMIDINE, 2 chloro-4-(dimethylamino)-6-methylpyrimidine]",DAYS TO KILL,[1],5 days
same,Kill (%),[1],100%
same,DAYS TO KILL,[2]; bait conc. 250 ppm,3 days
same,Kill (%),[2]; bait conc. 250 ppm,100%
"CC(=O)O[C@@H]1C[C@]2(O)[C@H](CC[C@]3(C)[C@@H](c4ccc(=O)oc4)CC[C@@]32O)[C@@]2(C)CC[C@H](O[C@@H]3O[C@H](CO)[C@@H](O)[C@H](O)[C@H]3O)C=C12 [SCILLIROSIDE, scilliroside]",DAYS TO KILL,[2]; bait conc. 50 ppm,2 days
same,Kill (%),[2]; bait conc. 50 ppm,100%
"O=C(O)CF [SODIUM FLUOROACETATE, Sodium fluoroacetate]",DAYS TO KILL,[2]; bait conc. 250 ppm,2 days
same,Kill (%),[2]; bait conc. 250 ppm,100%
"CNC(=O)O/N=C/C(C)(C)SC [aldicarb, 2 methyl-2-(methylthio) propionaldehyde 0-(methylcarbamoyl) oxime]",Kill Rat,[3]; Day 1,0 out of 5
same,Kill Rat,[3]; Day 2,0 out of 5
same,Kill Rat,[3]; Day 3,0 out of 5
same,kills recorded,"[3]; 100 ppm aldicarb, rats, after 3 days exposure",no kills
same,Kill Mouse,[4]; Day 1,0 out of 10
same,Kill Mouse,[4]; Day 2,0 out of 10
same,Kill Mouse,[4]; Day 3,0 out of 10
same,Kill Mouse,[4]; Day 4,0 out of 10
same,kills recorded,"[4]; 100 ppm aldicarb, mice, after 4 days exposure",no kills
same,Kill,[5]; Day 1,2 out of 5
same,Kill,[5]; Day 3,Remaining rat killed
same,Kill,[6]; Day 1,3 out of 5
same,Kill,[6]; Day 3,Remaining rat killed
same,Kill,[7]; [20],40%
same,mice killed (total of Example 4),[7]; [20],4 out of 10
same,Kill,"[7]; formulation A, one 0.5 mg particle per 10 grams of oatmeal, Day 1",1 out of 10
same,Kill,"[8]; formulation A 0.2 mg aldicarb particles, Example 5",100%
same,Kill,"[8]; formulation A, one 0.2 mg particle per 2 grams of oatmeal, Day 1",4 out of 10
same,Kill,[9],2 out of 5
same,Kill,[10],All killed
same,Mouse bait particles Rat Kill,[11]; Day 1,0/5
same,Mouse bait particles Rat Kill,[11]; Day 2,0/5
same,Mouse bait particles Rat Kill,[11]; Day 3,0/5
same,Mouse bait particles Rat Kill,[11]; Day 4,0/5
same,Mouse bait particles Rat Kill,[11]; Day 5 to 7,0/5
same,kill of rats feeding on the mouse bait,"[11]; 0.1 mg particles, 50 ppm bait, seven days of feeding",not killed even after seven days
same,Mouse bait particles Mouse Kill,[12]; Day 1,4 out of 10
same,Mouse bait particles Mouse Kill,[12]; Day 3,Remaining mouse died
same,death of all animals,"[12]; all mice feeding on the 0.1 mg particles, 50 ppm bait",died by the end of the third day
same,Rat bait particles Rat Kill,[13]; Day 1,2 out of 5
same,Rat bait particles Rat Kill,[13]; Day 3,Remaining rat died
same,death of all animals,"[13]; all rats feeding on the 1 mg particles, 50 ppm bait",died by the end of the third day
same,death of mice,[14]; 100 ppm aldicarb on 0.4 x 0.4 mm particles,All mice died
same,Mouse Kill %,[14]; [21],100%
same,Mouse Kill %,[14]; [22],30%
same,Mouse Kill %,[14]; 100 ppm as HOMOGENEOUS,0%
same,Rat Kill %,[15]; [21],0%
same,Rat Kill %,[15]; [22],100%
same,Rat Kill %,[15]; 100 ppm as HOMOGENEOUS,0%
same,mortality at 120 h,[16],0%
same,death of rabbits,[17],No rabbits died
same,Kill (%),"[18]; 60—80 g Weaner RATS, particle 0.75 × 0.75 mm",100%
same,Kill (%),"[18]; 60—80 g Weaner RATS, particle 1.0 × 1.0 mm",100%
same,Kill (%),"[18]; 60—80 g Weaner RATS, particle 1.5 × 3.0 mm",80%
same,Kill (%),"[18]; 300—400 g Adult RATS, particle 0.75 × 0.75 mm",50%
same,Kill (%),"[18]; 300—400 g Adult RATS, particle 1.0 × 1.0 mm",100%
same,Kill (%),"[18]; 300—400 g Adult RATS, particle 1.5 × 3.0 mm",100%
same,Kill (%),"[19]; 12—10 g. Weaner MICE, particle 0.2 × 0.5 mm",60%
same,Kill (%),"[19]; 12—10 g. Weaner MICE, particle 0.4 × 0.4 mm",100%
same,Kill (%),"[19]; 12—10 g. Weaner MICE, particle 0.5 × 0.5 mm",70%
same,Kill (%),"[19]; 12—10 g. Weaner MICE, particle 0.75 × 0.75 mm",57%
same,Kill (%),"[19]; 20—25 g Adult MICE, particle 0.2 × 0.5 mm",0%
same,Kill (%),"[19]; 20—25 g Adult MICE, particle 0.4 × 0.4 mm",100%
same,Kill (%),"[19]; 20—25 g Adult MICE, particle 0.5 × 0.5 mm",100%

# Source: patent EP0109697B1, “Rodent bait” (priority 1982, dated 1984)
